Measured values taken from patent US20230132823A1, “BI-FUNCTIONAL COMPOUNDS AND METHODS FOR TARGETED UBIQUITINATION OF ANDROGEN RECEPTOR” (MONTELINO THERAPEUTICS, INC., priority 2020, published 2023).

Assays:
[1] = system: Enzalutamide-resistant CaP tumor xenografts; test: Enzalutamide-resistant CaP tumor xenograft, systemic (IP or oral) dosing; format: in vivo, mice; details: four weeks, with enzalutamide, control 2200 mm^3
Protocol: In Vivo Study. To explore the therapeutic potential of Test Compound, 22Rv1, 22Rv1-Enz^R, VCaP, and VCaP-Enz^R are injected into nu/nu immunodeficient mice. When the resulting tumors reached an average size of 3 mm in diameter, all animals are surgically castrated via bilateral orchiectomy and divided into four groups of five mice each. For anesthesia, 3% isoflurane gas inhalation is used. Tumor size was measured using calipers and tumor volume was calculated using the formula: tumor volume=length×width^2[…].
Mice are then treated daily with Test Compound with or without enzalutamide via the indicated route (intratumoral, intraperitoneal, or oral) for five to six weeks. At the end of the study, all animals are sacrificed and tumors are harvested and analyzed. Statistical significance is calculated using the Student's t-test for paired comparisons of experimental groups and, where appropriate, by Wilcoxon rank sum test, and by 2-way ANOVA. In vitro experiments are repeated a minimum of three times.
To test whether the Compound is active systemically, an identical study is carried out as above except for delivering the Compound intraperitoneally (IP) or orally for four weeks. Enzalutamide-resistant CaP tumor xenografts are established in twelve mice and three each are assigned to the following four groups: control IP (vehicle), control oral (vehicle), 8.3 mg/kg IP, and 8.3 mg/kg oral. […]

[2] = molecular target: T1, AR-V7 (Homo sapiens, UniProt P10275); test: Immunoblot of AR-V7 polyubiquitination in 22Rv1 pretreated with MG132; format: cell-based; design: endogenous in cells; host or cells: 22Rv1; details: 22Rv1 pretreated with MG132 two hours; compound 1 μM
T1 sequence (P10275 1-644 isoform P10275-3): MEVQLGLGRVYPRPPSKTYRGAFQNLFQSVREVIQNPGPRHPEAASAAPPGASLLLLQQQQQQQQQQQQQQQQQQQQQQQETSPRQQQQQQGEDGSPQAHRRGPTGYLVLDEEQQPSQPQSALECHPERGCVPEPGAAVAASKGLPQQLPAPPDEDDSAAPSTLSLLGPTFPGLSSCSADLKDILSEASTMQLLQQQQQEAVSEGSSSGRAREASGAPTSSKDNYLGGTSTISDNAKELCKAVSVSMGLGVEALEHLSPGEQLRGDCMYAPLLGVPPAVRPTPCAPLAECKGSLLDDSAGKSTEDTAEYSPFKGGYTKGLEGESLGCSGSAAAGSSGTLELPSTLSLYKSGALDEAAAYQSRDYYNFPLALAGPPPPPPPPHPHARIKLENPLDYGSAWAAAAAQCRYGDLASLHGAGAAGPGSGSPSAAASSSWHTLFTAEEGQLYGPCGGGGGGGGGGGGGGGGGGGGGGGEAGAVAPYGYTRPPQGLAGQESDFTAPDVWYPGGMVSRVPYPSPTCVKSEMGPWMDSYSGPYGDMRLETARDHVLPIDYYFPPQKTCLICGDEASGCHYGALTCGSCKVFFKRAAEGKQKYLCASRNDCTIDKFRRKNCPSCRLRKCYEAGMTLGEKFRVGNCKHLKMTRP
Protocol: (§1) Immunoblot Analysis. CaP cells are collected and lysed with the lysis buffer (20 mM Tris-HCl (pH 7.5), 150 mM NaCl, 1 mM Na2EDTA, 1 mM EGTA, 1% Triton, 2.5 mM sodium pyrophosphate, 1 mM beta-glycerophosphate, 1 mM Na3VO4, and 1 μg/ml leupeptin) containing 1 mM phenylmethylsulfonyl fluoride (PMSF). Cell lysates are then centrifuged and protein in the supernatant is quantified. After separating 25-50 μg of protein using SDS-PAGE, samples are incubated with AR-V7, GR, PR, ERα, AR-FL, ubiquitin, or β-actin antibodies. For AR-V7, AR-FL, PR, GR, and ERα immunoblots, primary antibody is diluted 1:1000 in 5% skim milk. For the β-actin immunoblot, 1:10000 diluted primary antibody is used. All membranes are incubated overnight at 4° C. Following the incubation with appropriate secondary antibody, immunoblots are analyzed using SuperSignal West Femto Maximum Sensitivity Substrate (ThermoFisher).
(§2) To determine the ubiquitination status of AR proteins, 22Rv1 is pretreated with MG132 for two hours prior to adding Compound of Example 16 (at 1 μM).

[3] = molecular target: T2, AR-FL (Homo sapiens, UniProt P10275, DUP590-628/H875Y); test: Immunoblot of AR-FL polyubiquitination in 22Rv1 pretreated with MG132; format: cell-based; design: decreased AR-V7 and AR-FL protein expression levels in 22Rv1 cells; endogenous in cells; host or cells: 22Rv1; details: 22Rv1 pretreated with MG132 two hours; compound 1 μM
T2 sequence (P10275 with tags, fused parts or gaps DUP590-628/H875Y): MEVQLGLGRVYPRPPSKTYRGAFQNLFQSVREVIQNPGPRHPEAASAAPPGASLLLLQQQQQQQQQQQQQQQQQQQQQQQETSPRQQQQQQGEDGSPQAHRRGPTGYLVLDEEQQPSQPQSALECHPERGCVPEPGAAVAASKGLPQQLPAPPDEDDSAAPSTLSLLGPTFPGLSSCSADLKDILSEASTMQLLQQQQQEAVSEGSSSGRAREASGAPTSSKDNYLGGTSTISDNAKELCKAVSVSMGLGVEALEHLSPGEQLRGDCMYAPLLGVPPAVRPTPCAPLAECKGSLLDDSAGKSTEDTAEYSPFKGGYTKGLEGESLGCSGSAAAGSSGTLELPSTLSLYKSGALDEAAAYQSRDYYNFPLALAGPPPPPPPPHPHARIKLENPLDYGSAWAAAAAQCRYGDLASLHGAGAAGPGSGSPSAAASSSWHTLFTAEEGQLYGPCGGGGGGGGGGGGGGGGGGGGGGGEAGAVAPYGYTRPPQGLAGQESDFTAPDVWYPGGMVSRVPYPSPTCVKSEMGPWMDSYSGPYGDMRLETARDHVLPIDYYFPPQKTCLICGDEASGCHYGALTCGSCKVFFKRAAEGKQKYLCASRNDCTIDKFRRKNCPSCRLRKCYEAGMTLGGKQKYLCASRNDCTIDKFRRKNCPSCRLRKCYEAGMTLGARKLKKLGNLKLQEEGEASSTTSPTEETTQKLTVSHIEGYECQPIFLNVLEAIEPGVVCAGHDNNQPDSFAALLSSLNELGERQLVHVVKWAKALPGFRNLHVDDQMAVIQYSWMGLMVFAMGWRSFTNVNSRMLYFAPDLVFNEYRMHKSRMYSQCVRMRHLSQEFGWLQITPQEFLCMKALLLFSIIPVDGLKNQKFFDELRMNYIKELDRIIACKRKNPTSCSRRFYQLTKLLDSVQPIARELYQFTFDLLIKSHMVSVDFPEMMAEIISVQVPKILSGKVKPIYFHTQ
Protocol: as §1, §2

start of polyubiquitination of AR-V7 after treatment [2]: 6 h | time of detection of AR-FL polyubiquitination after treatment [3]: 24 h
SMILES: Cc1ncsc1-c1ccc([C@H](C)NC(=O)[C@@H]2C[C@@H](O)CN2C(=O)[C@@H](NC(=O)CCCCNC(=O)COc2c(-c3csc(N4CCOCC4)n3)ccc(F)c2F)C(C)(C)C)cc1 [Example 16, (2S,4R)-1-((S)-2-(5-(2-(2,3-difluoro-6-(2-morpholinothiazol-4-yl)phenoxy)acetamido)pentanamido)-3,3-dimethylbutanoyl)-4-hydroxy-N-((S)-1-(4-(4-methylthiazol-5-yl)phenyl)ethyl)pyrrolidine-2-carboxamide]
tumor size ([1]; 8.3 mg/kg IP): approximately 1000 mm^3 | tumor size ([1]; 8.3 mg/kg oral (PO)): approximately 700 mm^3
